Here are results for 26 compounds from patent US10221167B2, “Hydroxyalkylamine- and hydroxycycloalkylamine-substituted diamine-arylsulfonamide compounds with selective activity in voltage-gated sodium channels” (Merck Sharp & Dohme Corp., priority 2015, dated 2019).

Molecules are shown by their SMILES. Where only a bound is given, the exact number is not on record here.

The target in assay [1] is T1, human Nav1.7 channels stably expressed in HEK 293 cells (Homo sapiens, UniProt Q15858).
T1 construct: expressed in transfected cells
Kind of assay: IonWorks Quattro automated patch-clamp, state-dependent inhibition of Nav1.7. The assay is classed as cell-based. Particulars: inactivated state block, double-pulse protocol, holding -100 mV, read-out: potency for the Nav 1.7 sodium ion channel (as measured by IonWorks). As for the experimental part:
(§1) Compounds were tested on human Nav1.7 and Nav1.5 channels stably expressed in HEK 293 cells. […] Cells were sealed on a planar substrate using the Population Patch Plate (PPC) technology. Electrical access was obtained using both nystatin and amphotericin. A double-pulse protocol was used for the determination of IC50 values for inactivated state block. Nav1.7 and Nav1.5 expressing cells were voltage clamped at −100 mV and −110 mV, respectively. A depolarizing prepulse to −10 mV (Nav1.7) or −30 mV (Nav1.5) for 1000 ms followed by a 10 ms repolarization to −100 mV (Nav1.7) or −110 mV (Nav1.5) was given to generate fractional channel inactivation of ˜50%, followed by a 10 ms test pulse to −10 mV (Nav1.7) or −30 mV (Nav1.5) to measure peak current in control conditions and after compound addition. The following recording solutions were used (mM). External: 150 NaCl, 2 CaCl2, 5 KCl, 1 Mg Cl2, 10 HEPES, 12 Dextrose; internal: 120 CsF, 30 CsCl, 10 EGTA, 5 HEPES, 5 NaF, 2 MgCl2.
(§2) For all electrophysiology experiments, offline analysis was used to determine percent inhibition as a function of drug concentration. IC50 values were determined by fitting to the Hill equation.
(§3) The various compounds in Examples 1 through 4 and Tables 1 through 3 exemplified above were assayed for activity and selectivity using the foregoing IonWorks® technique. The results are reported in the following paragraph in a format expressing the identification of the compound with reference Example and compound (e.g. Ex 1-1 is Example 1, compound 1) followed by the observed potency in nM and the ratio of Nav1.7 potency:Nav 1.5 potency as described here. […]
Background: In patch-clamp work, channel activity is measured electrically.

Assay [2] addresses T2, human Nav1.5 channels stably expressed in HEK 293 cells (Homo sapiens, UniProt Q14524).
T2 construct: expressed in transfected cells
The experiment in a line: IonWorks Quattro automated patch-clamp, Nav1.5 (selectivity ratio versus Nav1.7). The conditions noted are these: selectivity for Nav1.7 over Nav1.5, inactivated state block. The class given is cell-based. How it is done: as §1, §2, §3

T1 sequence (Q15858 whole entry): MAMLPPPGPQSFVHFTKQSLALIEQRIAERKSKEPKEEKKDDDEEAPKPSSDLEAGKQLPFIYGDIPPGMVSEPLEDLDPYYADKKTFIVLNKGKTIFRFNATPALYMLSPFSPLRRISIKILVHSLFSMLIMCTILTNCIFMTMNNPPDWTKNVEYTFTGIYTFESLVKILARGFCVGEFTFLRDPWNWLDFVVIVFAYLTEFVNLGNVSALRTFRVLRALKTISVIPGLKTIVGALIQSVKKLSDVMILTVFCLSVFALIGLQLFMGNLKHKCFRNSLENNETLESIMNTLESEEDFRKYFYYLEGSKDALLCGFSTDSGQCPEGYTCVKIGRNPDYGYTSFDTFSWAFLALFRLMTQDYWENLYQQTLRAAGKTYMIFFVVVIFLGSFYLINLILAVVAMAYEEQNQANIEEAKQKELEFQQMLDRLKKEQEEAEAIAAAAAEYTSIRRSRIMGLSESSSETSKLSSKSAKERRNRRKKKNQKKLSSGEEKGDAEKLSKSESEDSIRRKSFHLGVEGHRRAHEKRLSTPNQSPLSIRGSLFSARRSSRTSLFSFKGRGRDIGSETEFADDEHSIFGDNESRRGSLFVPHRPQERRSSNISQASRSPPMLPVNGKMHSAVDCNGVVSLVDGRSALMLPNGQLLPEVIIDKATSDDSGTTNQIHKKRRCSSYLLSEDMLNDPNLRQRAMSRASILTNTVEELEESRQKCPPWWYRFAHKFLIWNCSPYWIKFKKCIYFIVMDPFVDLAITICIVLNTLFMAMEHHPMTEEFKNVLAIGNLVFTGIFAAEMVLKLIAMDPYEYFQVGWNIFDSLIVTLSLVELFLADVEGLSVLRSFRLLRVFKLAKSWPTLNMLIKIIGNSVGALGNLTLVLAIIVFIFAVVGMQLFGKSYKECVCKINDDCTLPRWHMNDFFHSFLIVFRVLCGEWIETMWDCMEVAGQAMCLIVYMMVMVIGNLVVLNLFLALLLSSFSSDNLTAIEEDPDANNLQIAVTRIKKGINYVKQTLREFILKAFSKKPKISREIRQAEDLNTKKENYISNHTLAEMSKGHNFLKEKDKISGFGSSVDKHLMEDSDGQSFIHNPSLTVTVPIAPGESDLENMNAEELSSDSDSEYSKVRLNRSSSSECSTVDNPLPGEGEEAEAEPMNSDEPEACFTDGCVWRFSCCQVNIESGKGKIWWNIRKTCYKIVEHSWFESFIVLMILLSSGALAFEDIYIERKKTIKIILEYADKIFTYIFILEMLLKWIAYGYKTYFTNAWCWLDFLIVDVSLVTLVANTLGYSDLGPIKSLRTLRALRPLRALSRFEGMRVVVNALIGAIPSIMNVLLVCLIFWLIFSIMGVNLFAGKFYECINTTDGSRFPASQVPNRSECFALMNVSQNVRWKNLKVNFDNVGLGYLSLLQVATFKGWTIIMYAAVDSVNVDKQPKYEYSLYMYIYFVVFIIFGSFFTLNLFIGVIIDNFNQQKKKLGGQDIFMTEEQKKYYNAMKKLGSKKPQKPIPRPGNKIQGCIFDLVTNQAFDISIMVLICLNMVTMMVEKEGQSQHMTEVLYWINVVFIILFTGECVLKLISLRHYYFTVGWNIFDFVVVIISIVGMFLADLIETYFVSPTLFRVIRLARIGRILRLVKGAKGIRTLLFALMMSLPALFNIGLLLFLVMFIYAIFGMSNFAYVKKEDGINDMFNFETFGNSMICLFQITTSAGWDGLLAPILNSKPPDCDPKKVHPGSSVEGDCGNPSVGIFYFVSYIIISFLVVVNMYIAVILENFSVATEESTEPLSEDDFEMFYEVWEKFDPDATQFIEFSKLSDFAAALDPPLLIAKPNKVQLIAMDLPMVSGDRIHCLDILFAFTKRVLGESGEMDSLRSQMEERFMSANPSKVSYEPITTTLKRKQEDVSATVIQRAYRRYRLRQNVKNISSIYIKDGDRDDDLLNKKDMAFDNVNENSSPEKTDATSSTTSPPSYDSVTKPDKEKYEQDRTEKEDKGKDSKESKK
T2 sequence (Q14524 whole entry): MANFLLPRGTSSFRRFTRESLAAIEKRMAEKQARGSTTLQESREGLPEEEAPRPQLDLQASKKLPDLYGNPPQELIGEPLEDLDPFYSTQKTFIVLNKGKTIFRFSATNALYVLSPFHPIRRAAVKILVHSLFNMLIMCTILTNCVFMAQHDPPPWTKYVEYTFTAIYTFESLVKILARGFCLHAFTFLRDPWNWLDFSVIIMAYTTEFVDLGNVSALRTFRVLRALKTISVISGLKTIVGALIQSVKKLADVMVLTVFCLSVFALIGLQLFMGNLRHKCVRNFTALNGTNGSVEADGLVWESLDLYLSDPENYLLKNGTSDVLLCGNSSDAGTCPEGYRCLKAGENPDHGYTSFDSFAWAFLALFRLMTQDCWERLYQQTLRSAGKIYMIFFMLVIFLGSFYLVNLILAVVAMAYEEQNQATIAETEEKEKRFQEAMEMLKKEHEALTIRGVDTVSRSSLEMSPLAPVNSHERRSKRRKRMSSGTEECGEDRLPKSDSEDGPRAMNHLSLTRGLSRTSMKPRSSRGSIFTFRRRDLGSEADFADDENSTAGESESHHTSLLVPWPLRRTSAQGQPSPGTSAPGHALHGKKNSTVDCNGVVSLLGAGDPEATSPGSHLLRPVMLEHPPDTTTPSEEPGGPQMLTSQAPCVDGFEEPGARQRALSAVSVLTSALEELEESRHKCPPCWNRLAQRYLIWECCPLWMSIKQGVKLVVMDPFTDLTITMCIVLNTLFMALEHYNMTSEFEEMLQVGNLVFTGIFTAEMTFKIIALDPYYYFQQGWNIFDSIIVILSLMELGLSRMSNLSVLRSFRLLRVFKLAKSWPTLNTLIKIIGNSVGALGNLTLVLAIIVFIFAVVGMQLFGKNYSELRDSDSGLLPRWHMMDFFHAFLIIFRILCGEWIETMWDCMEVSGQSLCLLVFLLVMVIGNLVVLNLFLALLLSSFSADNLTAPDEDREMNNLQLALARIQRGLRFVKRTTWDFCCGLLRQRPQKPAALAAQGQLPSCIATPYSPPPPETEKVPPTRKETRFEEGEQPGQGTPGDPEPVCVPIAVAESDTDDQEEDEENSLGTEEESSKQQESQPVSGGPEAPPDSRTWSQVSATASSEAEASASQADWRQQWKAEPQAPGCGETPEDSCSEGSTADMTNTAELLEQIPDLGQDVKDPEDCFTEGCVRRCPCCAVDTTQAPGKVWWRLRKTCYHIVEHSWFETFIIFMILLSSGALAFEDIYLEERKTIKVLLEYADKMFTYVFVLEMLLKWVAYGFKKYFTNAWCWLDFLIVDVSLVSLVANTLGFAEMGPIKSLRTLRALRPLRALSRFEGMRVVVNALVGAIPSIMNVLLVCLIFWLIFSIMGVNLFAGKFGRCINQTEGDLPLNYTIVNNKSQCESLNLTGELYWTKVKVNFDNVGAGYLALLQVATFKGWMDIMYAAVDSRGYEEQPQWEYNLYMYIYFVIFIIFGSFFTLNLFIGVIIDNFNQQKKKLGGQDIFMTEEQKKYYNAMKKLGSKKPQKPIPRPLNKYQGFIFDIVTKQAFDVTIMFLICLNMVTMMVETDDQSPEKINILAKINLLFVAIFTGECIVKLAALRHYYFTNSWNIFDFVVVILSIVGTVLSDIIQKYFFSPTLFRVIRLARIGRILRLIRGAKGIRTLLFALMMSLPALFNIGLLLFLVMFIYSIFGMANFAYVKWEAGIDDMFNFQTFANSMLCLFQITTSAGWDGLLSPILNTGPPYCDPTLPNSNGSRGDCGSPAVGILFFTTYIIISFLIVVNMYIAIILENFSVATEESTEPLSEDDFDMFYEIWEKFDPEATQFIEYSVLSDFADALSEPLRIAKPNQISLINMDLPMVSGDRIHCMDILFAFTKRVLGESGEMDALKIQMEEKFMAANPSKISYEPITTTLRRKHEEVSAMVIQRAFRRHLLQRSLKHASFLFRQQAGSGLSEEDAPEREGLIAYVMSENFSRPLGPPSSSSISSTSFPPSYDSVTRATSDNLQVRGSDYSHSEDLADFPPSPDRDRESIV

For the compound `NCC(O)CNCCCCNc1cc(F)c(S(=O)(=O)Nc2ncc(F)s2)cc1Cl` (single isomer, unassigned) [EX 2-17, 4-[(4-{[(2R or 2S)-3-amino-2-hydroxypropyl]amino}butyl)amino]-5-chloro-2-fluoro-N-(5-fluoro-1,3-thiazol-2-yl)benzenesulfonamide], the IC50 in assay [1] worked out at 0.015 µM.
For `NCC(O)CNCCCCNc1cc(F)c(S(=O)(=O)Nc2ncc(F)s2)cc1Cl` (single isomer, unassigned) [EX 2-18, 4-[(4-{[(2S or 2R)-3-amino-2-hydroxypropyl]amino}butyl)amino]-5-chloro-2-fluoro-N-(5-fluoro-1,3-thiazol-2-yl)benzenesulfonamide], the IC50 in assay [1] came out at 0.016 µM. For the same compound, the “ratio of Nav1.7 potency:Nav 1.5 potency” value in assay [2] is on record as at least 1000.
On to `NCC(O)CNCCCCNc1cc(F)c(S(=O)(=O)Nc2nccs2)cc1Cl` (single isomer, unassigned) [EX 2-29, 4-[(4-{[(2R or 2S)-3-amino-2-hydroxypropyl]amino}butyl)amino]-5-chloro-2-fluoro-N-1,3-thiazol-2-ylbenzenesulfonamide], for which the IC50 in assay [1] worked out at 0.018 µM.
On the same count and under the same terms, the same measure for `NCC(O)CNCCCCNc1cc(F)c(S(=O)(=O)Nc2nccs2)cc1Cl` (single isomer, unassigned) [EX 2-30, 4-[(4-{[(2S or 2R)-3-amino-2-hydroxypropyl]amino}butyl)amino]-5-chloro-2-fluoro-N-1,3-thiazol-2-ylbenzenesulfonamide]: 0.017 µM.
`NC[C@H](O)CNCCCCNc1cc(F)c(S(=O)(=O)Nc2ncns2)cc1Cl` [EX 1-1, 4-[(4-{[(2S)-3-amino-2-hydroxypropyl]amino}butyl)amino]-5-chloro-2-fluoro-N-1,2,4-thiadiazol-5-ylbenzenesulfonamide]: in assay [1], the IC50 is 0.05 µM. Besides, in assay [2], the “ratio of Nav1.7 potency:Nav 1.5 potency” value is on record as at least 660.
With `NCC1(O)CN(CCCCNc2cc(F)c(S(=O)(=O)Nc3ncc(F)s3)cc2Cl)C1` [EX 1-2, 4-({4-[3-(aminomethyl)-3-hydroxyazetidin-1-yl]butyl}amino)-5-chloro-2-fluoro-N-(5-fluoro-1,3-thiazol-2-yl)benzenesulfonamide], the IC50 in assay [1] worked out at 0.02 µM.
On to `Cc1cc(S(=O)(=O)Nc2ncc(F)s2)c(F)cc1NCCCCNCC1(O)CNC1` [EX 1-4, 2-fluoro-N-(5-fluoro-1,3-thiazol-2-yl)-4-[(4-{[(3-hydroxyazetidin-3-yl)methyl]amino}butyl)amino]-5-methylbenzenesulfonamide], for which the IC50 in assay [1] was found to be 0.039 µM. Also, the “ratio of Nav1.7 potency:Nav 1.5 potency” value in assay [2] is listed as at least 846.
As to `O=S(=O)(Nc1ncns1)c1cc(Br)c(NCCCCNCC2(O)CNC2)cc1F` [EX 1-5, 5-bromo-2-fluoro-4-[(4-{[(3-hydroxyazetidin-3-yl)methyl]amino}butyl)amino]-N-1,2,4-thiadiazol-5-ylbenzenesulfonamide], the IC50 in assay [1] amounted to 0.019 µM.
Same read-out and setting: the same measure for `NC[C@@H](O)CNCCCCNc1cc(F)c(S(=O)(=O)Nc2ncns2)cc1Cl` [EX 1-6, 4-[(4-{[(2R)-3-amino-2-hydroxypropyl]-amino}butyl)amino]-5-chloro-2-fluoro-N-1,2,4-thiadiazol-5-yl-benzenesulfonamide]: 0.015 µM.
With `NC[C@H](O)CNCCCCNc1cc(F)c(S(=O)(=O)Nc2ncns2)cc1Br` [EX 1-7, 4-[(4-{[(2S)-3-amino-2-hydroxypropyl]-amino}butyl)amino]-5-bromo-2-fluoro-N-1,2,4-thiadiazol-5-yl-benzenesulfonamide], in assay [1], the IC50 worked out at 0.007 µM. Besides, the “ratio of Nav1.7 potency:Nav 1.5 potency” value in assay [2] is at least 4714.
As for `NC[C@@H](O)CNCCCCNc1cc(F)c(S(=O)(=O)Nc2ncns2)cc1Br` [EX 1-8, 4-[(4-{[(2R)-3-amino-2-hydroxypropyl]-amino}-butyl)amino]-5-bromo-2-fluoro-N-1,2,4-thiadiazol-5-yl-benzenesulfonamide], the IC50 in assay [1] is 0.017 µM.
Regarding `Cc1csc(NS(=O)(=O)c2cc(Cl)c(NCCCCNCC3(O)CNC3)cc2F)n1` [EX 1-9, 5-chloro-2-fluoro-4-[(4-{[(3-hydroxyazetidin-3-yl)methyl]amino}butyl)amino]-N-(4-methyl-1,3-thiazol-2-yl)-benzenesulfonamide], the IC50 in assay [1] was 0.055 µM. For the same compound, the “ratio of Nav1.7 potency:Nav 1.5 potency” value in assay [2] was at least 600.
In the case of `O=S(=O)(Nc1ncns1)c1cc(Cl)c(NCCCCN[C@@H]2CNC[C@H]2O)cc1F` [EX 2-2, 5-chloro-2-fluoro-4-[(4-{[(3R,4R)-4-hydroxypyrrolidin-3-yl]amino}butyl)amino]-N-1,2,4-thiadiazol-5-ylbenzenesulfonamide], the IC50 in assay [1] was 0.023 µM.
For `O=S(=O)(Nc1ncc(F)s1)c1cc(Cl)c(NCCCCN[C@@H]2CNC[C@H]2O)cc1F` [EX 2-20, 5-chloro-2-fluoro-N-(5-fluoro-1,3-thiazol-2-yl)-4-[(4-{[(3R,4R)-4-hydroxypyrrolidin-3-yl]amino}butyl)amino] benzenesulfonamide], the IC50 in assay [1] is 0.04 µM.
On the same count and under the same terms, the same measure for `O=S(=O)(Nc1ncc(F)s1)c1cc(Cl)c(NCCCCNC[C@H]2C[C@@H](O)CN2)cc1F` [EX 2-23, 5-chloro-2-fluoro-N-(5-fluoro-1,3-thiazol-2-yl)-4-{[4-({[(2R,4R)-4-hydroxypyrrolidin-2-yl]methyl}amino)butyl]amino} benzenesulfonamide]: 0.023 µM; for `O=S(=O)(Nc1ncc(F)s1)c1cc(Cl)c(NCCCCNC[C@H]2C[C@H](O)CN2)cc1F` [EX 2-24, 5-chloro-2-fluoro-N-(5-fluoro-1,3-thiazol-2-yl)-4-{[4-({[(2R,4S)-4-hydroxypyrrolidin-2-yl]methyl}amino)butyl]amino} benzenesulfonamide]: 0.03 µM.
As for `O=S(=O)(Nc1ncc(F)s1)c1cc(Br)c(NCCCCNCC2(O)CNC2)cc1F` [EX 2-25, 5-bromo-2-fluoro-N-(5-fluoro-1,3-thiazol-2-yl)-4-[(4-{[(3-hydroxyazetidin-3-yl)methyl]amino}butyl)amino] benzenesulfonamide], the IC50 in assay [1] came out at 0.015 µM.
Same read-out and setting: the same measure for `O=S(=O)(Nc1nccs1)c1cc(Cl)c(NCCCCNCC2(O)CNC2)cc1F` [EX 2-28, 5-chloro-2-fluoro-4-[(4-{[(3-hydroxyazetidin-3-yl)methyl]amino}butyl)amino]-N-1,3-thiazol-2-ylbenzenesulfonamide]: 0.018 µM; for `O=S(=O)(Nc1nccs1)c1cc(Cl)c(NCCCCN[C@@H]2CNC[C@H]2O)cc1F` [EX 2-31, 5-chloro-2-fluoro-4-[(4-{[(3R,4R)-4-hydroxypyrrolidin-3-yl]amino}butyl)amino]-N-1,3-thiazol-2-ylbenzenesulfonamide]: 0.03 µM.
Same read-out and setting: the same measure for `NCC[C@@H](CO)NCCCCNc1cc(F)c(S(=O)(=O)Nc2nccs2)cc1Cl` [EX 2-32, 4-[(4-{[(1S)-3-amino-1-(hydroxymethyl)propyl]amino}butyl)amino]-5-chloro-2-fluoro-N-1,3-thiazol-2-ylbenzenesulfonamide]: 0.019 µM; for `NCC[C@@H](CO)NCCCCNc1cc(F)c(S(=O)(=O)Nc2ncc(F)s2)cc1Cl` [EX 2-33, 4-[(4-{[(1S)-3-amino-1-(hydroxymethyl)propyl]amino}butyl)amino]-5-chloro-2-fluoro-N-(5-fluoro-1,3-thiazol-2-yl)benzenesulfonamide]: 0.02 µM; for `NCC[C@@H](CO)NCCCCNc1cc(F)c(S(=O)(=O)Nc2ncns2)cc1Cl` [EX 2-34, 4-[(4-{[(1S)-3-amino-1-(hydroxymethyl)propyl]amino}butyl)amino]-5-chloro-2-fluoro-N-1,2,4-thiadiazol-5-ylbenzenesulfonamide]: 0.018 µM.
For `NC[C@@H](CO)NCCCCNc1cc(F)c(S(=O)(=O)Nc2nccs2)cc1Cl` [EX 2-35, 4-[(4-{[(1S)-2-amino-1-(hydroxymethyl)ethyl]amino}butyl)amino]-5-chloro-2-fluoro-N-1,3-thiazol-2-ylbenzenesulfonamide], the IC50 in assay [1] came to 0.015 µM.
On the same count and under the same terms, the same measure for `O=S(=O)(Nc1nccs1)c1cc(Cl)c(NCCCCN[C@H]2CNC[C@@H]2O)cc1F` [EX 2-38]: 0.04 µM; for `NC[C@H](CO)NCCCCNc1cc(F)c(S(=O)(=O)Nc2ncc(F)s2)cc1Cl` [EX 2-40, 4-[(4-{[(1R)-2-amino-1-(hydroxymethyl)ethyl]amino}butyl)amino]-5-chloro-2-fluoro-N-(5-fluoro-1,3-thiazol-2-yl)benzenesulfonamide]: 0.05 µM.
Still for that read-out and setting: the same measure for `O=S(=O)(Nc1ncns1)c1cc(Br)c(NCCCCN[C@H]2CNC[C@@H]2O)cc1F` [EX 2-43, 5-bromo-2-fluoro-4-((4-(((3S,4S)-4-hydroxypyrrolidin-3-yl)amino)butyl)amino)-N-(1,2,4-thiadiazol-5-yl)benzenesulfonamide]: 0.015 µM.
